Target: T1, Arabidopsis thaliana 5-phosphoribosyl-1-pyrophosphate synthetase 1 (Arabidopsis thaliana, UniProt Q42581)
T1 construct: His-tag (from vector pFastBacHTb); made in house; host or cells: Sf21 insect cells (recombinant baculovirus, pFASTBAC HTb-AtPrs1)
T1 sequence (Q42581 50-403): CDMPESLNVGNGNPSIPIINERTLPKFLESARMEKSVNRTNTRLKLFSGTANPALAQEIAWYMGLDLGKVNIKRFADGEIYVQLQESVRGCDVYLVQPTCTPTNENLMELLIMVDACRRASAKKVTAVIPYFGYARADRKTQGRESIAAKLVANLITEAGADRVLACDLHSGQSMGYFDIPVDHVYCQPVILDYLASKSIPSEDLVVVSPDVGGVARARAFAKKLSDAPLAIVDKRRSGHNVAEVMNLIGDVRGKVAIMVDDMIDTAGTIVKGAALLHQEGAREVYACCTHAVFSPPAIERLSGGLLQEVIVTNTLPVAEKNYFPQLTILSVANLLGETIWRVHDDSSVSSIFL
Test: 5-Phosphoribosyl-1-pyrophosphate synthetase 1 assay system (photometric, coupled enzyme, drop in NADH at 340 nm)
Format: biochemical
Conditions: 0.5-5 mM inhibitor, recombinant enzyme from Sf21 insect cells, 18 μg total protein
From the text: To obtain active Arabidopsis thaliana 5-phosphoribosyl-1-pyrophosphate synthetase 1 for high-throughput screening methods, the Arabidopsis thaliana Prs1 fragment is obtained from vector pGEM-T AtPrs1 (FIG. 2) using the restriction enzymes BamHI and EcoRI (cleavage sites inserted via primers RBPRPP3 and RBPRPP4) and cloned into the identically cleaved transfer vector pFastBacHTb (GibcoBRL). The resulting construct pFASTBAC HTb-AtPrs1 is used in accordance with the manufacturer's instructions (GibcoBRL) for generating recombinant Baculovirus. This virus is employed in accordance with the manufacturer's instructions (GibcoBRL) for infecting Sf21 insect cells in order to generate active 5-phosphoribosyl-1-pyrophosphate synthetase 1 enzyme. The specific enzymatic phosphoribosyl-pyrophosphate synthetase 1 activity is measured photometrically after the cells have been sonicated. The following components are employed per 90 μl batch: […]
After the cells had been sonicated in lysis buffer (50 mM NaH2PO4, 300 mM NaCl, pH 7.8), 18 μg of total protein are employed. […] What is measured is the drop in NADH at 340 nm.

Nc1ncnc2c1ncn2[C@@H]1O[C@H](COP(=O)(O)OP(=O)(O)OP(=O)(O)O)C[C@H]1O [cordycepin-5′-triphosphate]
inhibition of the enzymatic activity of the plant 5-phosphoribosyl-1-pyrophosphate synthetase 1: inhibits the enzymatic activity
